In patent US20230346948A1, “Lipid conjugated peptide inhibitors of PICK1” (University of Copenhagen, priority 2020, published 2023):
“And” between values parts separate entries of the source, which are not always exact repeats. Equal entries are not always repeated.

Tests used:
[1] = target: T1, PICK1 (Rattus norvegicus, UniProt Q9EP80); assay: Fluorescence polarization competition binding to recombinant PICK1
T1 construct: Full length rat PICK1 (pET41) was prepared as described earlier; inferred from pET41 vector and Glutathione-Sepharose capture) (N, cleaved yes); made in house; host or cells: E. coli BL21-DE3-pLysS
T1 sequence (Q9EP80 whole entry): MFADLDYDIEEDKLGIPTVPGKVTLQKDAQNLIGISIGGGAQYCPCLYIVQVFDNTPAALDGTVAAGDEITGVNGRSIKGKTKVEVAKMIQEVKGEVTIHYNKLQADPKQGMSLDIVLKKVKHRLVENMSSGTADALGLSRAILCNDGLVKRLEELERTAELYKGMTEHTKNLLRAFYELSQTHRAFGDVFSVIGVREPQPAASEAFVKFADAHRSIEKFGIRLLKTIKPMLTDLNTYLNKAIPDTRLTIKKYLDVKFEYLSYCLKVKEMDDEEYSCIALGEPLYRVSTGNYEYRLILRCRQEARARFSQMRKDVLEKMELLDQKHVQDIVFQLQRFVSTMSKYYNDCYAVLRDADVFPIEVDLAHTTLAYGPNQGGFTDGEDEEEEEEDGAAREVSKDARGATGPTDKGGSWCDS
Description: Full length rat PICK1 (pET41) was prepared as described earlier (Madsen et al., 2005). In brief, PICK1 was expressed in BL21-DE3-pLysS cells and grown at 37° C., induced at OD600=0.6 with 1 mM Isopropyl β-D-1-thiogalactopyranoside (IPTG) and grown 16 hrs at 20° C. Cultures were harvested and re-suspended in 50 mM trisaminomethane (Tris), 125 mM NaCl, 2 mM Dithiothreitol (DTT, Sigma), 1% Triton X-100 (Sigma), 20 μg/mL DNAse 1 and 1⁄2 a tablet cOmplete protease inhibitor cocktail (Roche) pr. 1 L culture. The re-suspended pellets were frozen at -80° C. for later purification. […] Each column was sealed and 0.075 U/μL, Novagen® was added for cleavage 0/N at 4° C. under gentle rotation. PICK1 was eluted on ice and absorption at 280 nm was measured on TECAN plate reader or on a NanoDrop3000. The protein concentration was determined using lambert beers law (A=ε[…]=32320 (cm*mol/L)^-1. Fluorescence polarization: Fluorescence polarization was carried out in competition mode at a fixed concentration of protein and tracer (5[…], 5 nM or 5[…], 20 nM), against an increasing concentration of indicated unlabelled peptide. The plate was incubated for 2 hours on ice in a black half-area Corning Black non-binding surface 96-well plate. The fluorescence polarization was measured directly on an Omega POLARstar plate reader using excitation filter at 488 nm and long pass emission filter at 535 nm. The data was plotted using GraphPad Prism 8.3, and fitted to the One site competition, to extract Ki,app value.

[2] = Chemical stability in PBS for 30 days, HPLC-UV-MS; assay type: physicochemical
Description: Stability was addressed by […] for four concentration 2, 20, 50 and 200 μM, by leaving […] in PBS at 5 and […] for 30 days followed by HPLC-UV-MS method

[3] = target: T1, PICK1; assay: Size exclusion chromatography of PICK1 in complex with inhibitor; settings: 40 μM PICK1 with 10 μM inhibitor (4:1)
Description: Full length rat PICK1 (pET41) was prepared as described earlier (Madsen et al., 2005). In brief, PICK1 was expressed in BL21-DE3-pLysS cells and grown at 37° C., induced at OD600=0.6 with 1 mM Isopropyl β-D-1-thiogalactopyranoside (IPTG) and grown 16 hrs at 20° C. Cultures were harvested and re-suspended in 50 mM trisaminomethane (Tris), 125 mM NaCl, 2 mM Dithiothreitol (DTT, Sigma), 1% Triton X-100 (Sigma), 20 μg/mL DNAse 1 and 1⁄2 a tablet cOmplete protease inhibitor cocktail (Roche) pr. 1 L culture. The re-suspended pellets were frozen at -80° C. for later purification. […] Each column was sealed and 0.075 U/μL, Novagen® was added for cleavage 0/N at 4° C. under gentle rotation. PICK1 was eluted on ice and absorption at 280 nm was measured on TECAN plate reader or on a NanoDrop3000. The protein concentration was determined using lambert beers law (A=ε[…]=32320 (cm*mol/L)^-1. Size exclusion chromatography: Size exclusion chromatography was performed using an Äkta purifier with a Superdex200 Increase 10/300 column, where 500 μL of 40 μM PICK1 in absence or presence of 10 μM […] was loaded to the column. Absorbance profile was measured at 280 nm and plotted against elution volume using Graph Pad Prism 8.3.

[4] = Solubility by visual inspection in PBS; assay type: physicochemical
[5] = system: spontaneous inflammatory pain (CFA model); assay: Single exposure place preference (sePP), spontaneous pain; assay type: in vivo, mice
Description: Inflammatory pain (CFA model): Animals were habituated to the experimental room for a minimum of 60 min before initiation of the experiment. Mechanical pain threshold of both hind paws was determined by von Frey measurements. Injury was induced on the right hind paw, whereas the contralateral left hind paw was used as internal control of the animal. […] In the current experiment filaments in ascending order were applied to the frontocentral plantar surface of the hind paws. […] Each von Frey filament was applied five times with adequate resting periods between each application and number of withdrawals recorded. The withdrawal threshold was determined as the von Frey filament eliciting at least 3 positive trials out of the 5 applications in two consecutive filaments. A positive trial was defined as sudden paw withdrawal, flinching and/or paw licking induced by the filament. The inflammatory pain was induced by injection of 50 μL undiluted Complete Freund's Adjuvant (CFA) ([…], Sigma) unilaterally into the intraplantar surface of the right hind paw. All intraplantar injections were performed with an insulin needle (0.3 mL BD Micro-Fine), while the animal was under isoflurane anesthesia (2%) for maximum 60 seconds. […] Statistical analysis: was performed using GraphPad Prism 6.0. Student's t-test. Significance level set to p<0.05. […] All mice from a cage were tested at the same time, but not all given the same treatment. On exposure days, mice were weighed and injected s.c. with peptide (30 μmol/kg) or vehicle (10 μL/g) and immediately placed into the designated compartment for 60 min. The test group was exposed to peptide in the least preferred compartment, and vehicle (PBS) in the preferred compartment, whereas the control group was injected with vehicle in both compartments. […] Time spent in the different compartments was measured by Ethovision (Noldus, Wageningen, Netherlands). An additional experiment was run on animals without injury, showing no mPD5-dependent preference change

CCCCCCCCCCCCCC(=O)N(CCOCCOCCC(=O)N[C@@H](Cc1c[nH]cn1)C(=O)N[C@@H](Cc1c[nH]c2ccccc12)C(=O)N[C@@H](CC(C)C)C(=O)N[C@@H](CCCCN)C(=O)N[C@H](C(=O)O)C(C)C)CCOCCOCCC(=O)N[C@@H](Cc1c[nH]cn1)C(=O)N[C@@H](Cc1c[nH]c2ccccc12)C(=O)N[C@@H](CC(C)C)C(=O)N[C@@H](CCCCN)C(=O)N[C@H](C(=O)O)C(C)C [myr-NPEG4-(HWLKV)2]
affinity increase compared to HWLKV ([1]; FP competition): > 1000 fold | affinity increase compared to NPEG4-(HWLKV)2 ([1]; FP competition): > 50 fold | Ki ([1]; tracer 5FAM-NPEG4-(HWLKV)2 5 nM or 5FAM-HWLKV 20 nM (vs HWLKV), 2 hours on ice, read-out: Ki,app): 3 nM | Measured Conc. mPD5 ([2]; 30 days @5° C, nominal 2 μM): 0.5 µM | Measured Conc. mPD5 ([2]; 30 days @5° C, nominal 20 μM): 17 µM | Measured Conc. mPD5 ([2]; 30 days @5° C, nominal 50 μM): 49 µM | Measured Conc. mPD5 ([2]; 30 days @5° C, nominal 200 μM): 194 µM | Measured Conc. mPD5 ([2]; 30 days @25° C, nominal 2 μM): 0.4 µM | Measured Conc. mPD5 ([2]; 30 days @25° C, nominal 20 μM): 17 µM | Measured Conc. mPD5 ([2]; 30 days @25° C, nominal 50 μM): 48 µM | Measured Conc. mPD5 ([2]; 30 days @25° C, nominal 200 μM): 203 µM | chemically stable for ([2]; +5° C. and +25° C. in the vehicle compositions): at least 30 days | degradation ([2]; PBS, 30 days, +5° C. and +25° C.): No degradation was observed | purity after storage ([2]; samples with 200 and 50 μM, 30 days in PBS): > 98% | oligomeric state of PICK1 upon binding (SEC elution volume) [3]: forms higher order oligomeric structures of PICK1 upon binding | solubility [4]: ≥ 130000 µM and 250000 µg/mL | place preference, time in drug-paired compartment vs vehicle-treated controls ([5]; CFA-injured mice, s.c. 30 μmol/kg, single exposure): spent significantly more time in the myr-NPEG4-(HWLKV)2-paired compartment | place preference ([5]; mice without injury (Naïve), s.c. 30 μmol/kg, single exposure): no change in preference | abuse liability ([5]; mouse, in vivo): lack of abuse liability
